Structures are written as SMILES. A value given as a limit tells only on which side of the number the result lay.

The subject of the first experiment is RSV. In words: Dose-response counterscreen: luciferase reporter virus infection of BEAS-2B cells (EC50). The experiment is classed as cell-based, respiratory syncytial virus (RSV). The note with it: human respiratory syncytial virus, A series compounds, anti-RSV potency, read-out: Potency Range (EC50 values).
The EC50 is the concentration giving half of the maximal effect. For `COc1ccc(C2CC(=O)Nc3nn(-c4ccccn4)cc32)cc1OC1CCCC1` (stereo not shown) [AVG-117], the EC50 is 10000 to 20000 nM. The same measure, in the same setting: the result for `COc1cc(C2CC(=O)Nc3[nH]ncc32)ccc1OC1CCCC1` (stereo not shown) [AVG-179] reads over 20000 nM.

For the molecule `COc1cc(C2CC(=O)Nc3c2cnn3-c2ccccn2)ccc1OC1CCCC1` (stereo not shown) [AVG-180], the concentration for a half-maximal effect (EC50) is 10000 to 20000 nM. The same measure, in the same setting: the result for `COc1cc(C2CC(=O)Nc3nn(-c4ccccn4)cc32)ccc1OC1CCCC1` (stereo not shown) [AVG-180b] reads 10000 to 20000 nM. As to `COc1ccc(Cn2ncc3c2NC(=O)CC3c2ccc(OC3CCCC3)c(OC)c2)c(OC)c1` (stereo not shown) [AVG-181], the EC50 lay within 1000 to 10000 nM.

Staying with this experiment, now noted: human respiratory syncytial virus, B series compounds, read-out: Potency Range (EC50 values).
With `Cc1c2c(=O)n(-c3nc4ccccc4s3)n(Cc3ccccn3)c2cc(=O)n1Cc1ccco1` [AVG-119], the EC50 fell in the range of 1000 to 10000 nM. Take `Cc1c2c(=O)n(-c3nc4ccccc4s3)n(Cc3cccnc3)c2cc(=O)n1Cc1ccco1` [AVG-120]: the EC50 lay in the range of 1000 to 10000 nM. Same read-out and setting: for `Cc1c2c(=O)n(-c3nc4ccccc4s3)n(Cc3ccncc3)c2cc(=O)n1Cc1ccco1` [AVG-121] the value was 1000 to 10000 nM; for `Cc1c2c(=O)n(-c3nc4ccccc4s3)n(Cc3ccco3)c2cc(=O)n1Cc1ccco1` [AVG-122], 1000 to 10000 nM. Still for that read-out and setting: the result for `Cc1c2c(=O)n(-c3nc4ccccc4s3)n(Cc3ccoc3)c2cc(=O)n1Cc1ccco1` [AVG-123] reads 10000 to 20000 nM; that for `Cc1c2c(=O)n(-c3nc4ccccc4s3)n(Cc3ncco3)c2cc(=O)n1Cc1ccco1` [AVG-124], 1000 to 10000 nM. On the same count and under the same terms, for `Cc1c2c(=O)n(-c3nc4ccccc4s3)n(Cc3cocn3)c2cc(=O)n1Cc1ccco1` [AVG-125] the value was over 20000 nM.

Turning to `Cc1c2c(=O)n(-c3nc4ccccc4s3)n(Cc3cnco3)c2cc(=O)n1Cc1ccco1` [AVG-126], the EC50 lay within 1000 to 10000 nM. The same measure, in the same setting: the result for `Cc1c2c(=O)n(-c3ccccn3)n(Cc3ccccc3)c2cc(=O)n1Cc1ccccc1Cl` [AVG-127] reads 100 to 1000 nM. Same read-out and setting: for `Cc1c2c(=O)n(-c3ccccn3)n(Cc3ccccc3)c2cc(=O)n1Cc1cccc(Cl)c1` [AVG-128] the value was 100 to 1000 nM; for `Cc1c2c(=O)n(-c3ccccn3)n(Cc3ccccc3)c2cc(=O)n1Cc1ccc(F)cc1` [AVG-129], 100 to 1000 nM. Still for that read-out and setting: for `Cc1c2c(=O)n(-c3ccccn3)n(Cc3ccccc3)c2cc(=O)n1Cc1ccccc1F` [AVG-130] the value was 100 to 1000 nM. With `Cc1c2c(=O)n(-c3ccccn3)n(Cc3ccccc3)c2cc(=O)n1Cc1cccc(F)c1` [AVG-131], the EC50 is 100 to 1000 nM. Same read-out and setting: the result for `COc1ccc(Cn2c(C)c3c(=O)n(-c4ccccn4)n(Cc4ccccc4)c3cc2=O)cc1` [AVG-132] reads 1000 to 10000 nM; that for `COc1ccccc1Cn1c(C)c2c(=O)n(-c3ccccn3)n(Cc3ccccc3)c2cc1=O` [AVG-133], 100 to 1000 nM; that for `COc1cccc(Cn2c(C)c3c(=O)n(-c4ccccn4)n(Cc4ccccc4)c3cc2=O)c1` [AVG-134], 100 to 1000 nM. Still for that read-out and setting: the result for `Cc1c2c(=O)n(-c3nc4ccccc4s3)n(C(C)c3ccccc3)c2cc(=O)n1Cc1ccccn1` (stereo not shown) [AVG-135] reads 10000 to 20000 nM; that for `Cc1cccc(Cn2c(C)c3c(=O)n(-c4nc5ccccc5s4)n(Cc4ccccc4)c3cc2=O)n1` [AVG-157], 100 to 1000 nM; that for `COc1cccc(Cn2c(C)c3c(=O)n(-c4nc5ccccc5s4)n(Cc4ccccc4)c3cc2=O)n1` [AVG-158], 100 to 1000 nM. On the same count and under the same terms, for `Cc1c2c(=O)n(-c3nc4ccccc4s3)n(Cc3ccccc3)c2cc(=O)n1Cc1cccc(C(C)C)n1` [AVG-159] the value was 10 to 100 nM; for `Cc1c2c(=O)n(-c3nc4ccccc4s3)n(Cc3ccccc3)c2cc(=O)n1Cc1cc(Cl)ccn1` [AVG-160], 1000 to 10000 nM; for `Cc1c2c(=O)n(-c3nc4ccccc4s3)n(Cc3ccccc3)c2cc(=O)n1Cc1ncccc1Cl` [AVG-161], 1000 to 10000 nM. With `Cc1c2c(=O)n(-c3nc4ccccc4s3)n(Cc3ccccc3)c2cc(=O)n1Cc1cncc(Cl)n1` [AVG-162], the EC50 lay within 10000 to 20000 nM.

As to `Cc1c2c(=O)n(-c3nc4ccccc4s3)n(Cc3ccccc3)c2cc(=O)n1Cc1cnc(Cl)cn1` [AVG-163], the EC50 was in the range of 1000 to 10000 nM.

As to `Cc1c2c(=O)n(-c3nc4ccccc4s3)n(Cc3ccccc3)c2cc(=O)n1Cc1nccnc1Cl` [AVG-164], the EC50 is over 20000 nM. On the same count and under the same terms, the result for `CCc1c2c(=O)n(-c3nc4ccccc4s3)n(Cc3ccccc3)c2cc(=O)n1Cc1cccc(Cl)n1` [AVG-165] reads 1000 to 10000 nM. The same measure, in the same setting: for `CC(C)c1c2c(=O)n(-c3nc4ccccc4s3)n(Cc3ccccc3)c2cc(=O)n1Cc1cccc(Cl)n1` [AVG-166] the value was 1000 to 10000 nM; for `Cc1c2c(=O)n(-c3nc4ccccc4s3)n(Cc3ccccc3)c2cc(=O)n1Cc1ccc(Cl)c(Cl)n1` [AVG-168], 100 to 1000 nM; for `Cc1c2c(=O)n(-c3nc4ccccc4s3)n(Cc3ccccc3)c2cc(=O)n1Cc1cc(Cl)cc(Cl)n1` [AVG-169], 100 to 1000 nM. The same measure, in the same setting: the result for `Cc1c2c(=O)n(-c3nc4ccccc4s3)n(Cc3ccccc3)c2cc(=O)n1C(C)c1cccc(Cl)n1` (stereo not shown) [AVG-170] reads 1000 to 10000 nM; that for `Cc1c2c(=O)n(-c3ccccn3)n(Cc3ccccc3)c2cc(=O)n1Cc1cccc(Cl)n1` [AVG-171], 10 to 100 nM.

Take `Cc1c2c(=O)n(-c3ccccn3)n(Cc3ccccc3)c2cc(=O)n1Cc1ccc(Cl)c(Cl)n1` [AVG-172]: the EC50 was 100 to 1000 nM. Still for that read-out and setting: the result for `Cc1c2c(=O)n(-c3nc4ccccc4s3)n(Cc3ccc(Cl)cc3)c2cc(=O)n1Cc1cccc(Cl)n1` [AVG-173] reads 100 to 1000 nM; that for `Cc1c2c(=O)n(-c3nc4ccccc4s3)n(Cc3cccc(Cl)c3)c2cc(=O)n1Cc1cccc(Cl)n1` [AVG-174], 1000 to 10000 nM. In the case of `Cc1c2c(=O)n(-c3nc4ccccc4s3)n(Cc3ccccc3Cl)c2cc(=O)n1Cc1cccc(Cl)n1` [AVG-175], the EC50 was in the range of 1000 to 10000 nM.

For the molecule `COc1ccccc1Cn1c2cc(=O)n(Cc3cccc(Cl)n3)c(C)c2c(=O)n1-c1nc2ccccc2s1` [AVG-176], the EC50 fell in the range of 100 to 1000 nM. Same read-out and setting: the result for `COc1cccc(Cn2c3cc(=O)n(Cc4cccc(Cl)n4)c(C)c3c(=O)n2-c2nc3ccccc3s2)c1` [AVG-177] reads 100 to 1000 nM; that for `COc1ccc(Cn2c3cc(=O)n(Cc4cccc(Cl)n4)c(C)c3c(=O)n2-c2nc3ccccc3s2)cc1` [AVG-178], 10 to 100 nM; that for `Cc1c2c(=O)n(-c3nc4c(Cl)cccc4s3)n(Cc3ccccc3)c2cc(=O)n1Cc1cccc(Cl)n1` [AVG-183], 10 to 100 nM. The same measure, in the same setting: the result for `Cc1c2c(=O)n(-c3nc4cc(Cl)ccc4s3)n(Cc3ccccc3)c2cc(=O)n1Cc1cccc(Cl)n1` [AVG-184] reads 1000 to 10000 nM; that for `Cc1c2c(=O)n(-c3nc4ccc(Cl)cc4s3)n(Cc3ccccc3)c2cc(=O)n1Cc1cccc(Cl)n1` [AVG-185], 100 to 1000 nM; that for `COc1cccc2sc(-n3c(=O)c4c(C)n(Cc5cccc(Cl)n5)c(=O)cc4n3Cc3ccccc3)nc12` [AVG-187], 100 to 1000 nM. On the same count and under the same terms, the result for `COc1ccc2sc(-n3c(=O)c4c(C)n(Cc5cccc(Cl)n5)c(=O)cc4n3Cc3ccccc3)nc2c1` [AVG-188] reads 100 to 1000 nM; that for `COc1ccc2nc(-n3c(=O)c4c(C)n(Cc5cccc(Cl)n5)c(=O)cc4n3Cc3ccccc3)sc2c1` [AVG-189], 10 to 100 nM; that for `Cc1cccc2sc(-n3c(=O)c4c(C)n(Cc5cccc(Cl)n5)c(=O)cc4n3Cc3ccccc3)nc12` [AVG-191], 100 to 1000 nM. In the case of `Cc1ccc2sc(-n3c(=O)c4c(C)n(Cc5cccc(Cl)n5)c(=O)cc4n3Cc3ccccc3)nc2c1` [AVG-192], the EC50 lay in the range of 100 to 1000 nM.

`Cc1ccc2nc(-n3c(=O)c4c(C)n(Cc5cccc(Cl)n5)c(=O)cc4n3Cc3ccccc3)sc2c1` [AVG-193]: the EC50 was in the range of 100 to 1000 nM. On the same count and under the same terms, for `Cc1cccc2nc(-n3c(=O)c4c(C)n(Cc5cccc(Cl)n5)c(=O)cc4n3Cc3ccccc3)sc12` [AVG-194] the value was 100 to 1000 nM. On to `Cc1c2c(=O)n(-c3nc4ncccc4s3)n(Cc3ccccc3)c2cc(=O)n1Cc1cccc(Cl)n1` [AVG-195], for which the EC50 lay in the range of 10 to 100 nM. Same read-out and setting: the result for `Cc1c2c(=O)n(-c3nc4cnccc4s3)n(Cc3ccccc3)c2cc(=O)n1Cc1cccc(Cl)n1` [AVG-196] reads 10000 to 20000 nM.

As for `Cc1c2c(=O)n(-c3nc4ccncc4s3)n(Cc3ccccc3)c2cc(=O)n1Cc1cccc(Cl)n1` [AVG-197], the EC50 lay within 10 to 100 nM. On the same count and under the same terms, the result for `Cc1c2c(=O)n(-c3nc4cccnc4s3)n(Cc3ccccc3)c2cc(=O)n1Cc1cccc(Cl)n1` [AVG-198] reads 100 to 1000 nM; that for `COc1ccc(Cn2c(=O)c3c(C)n(Cc4ccccn4)c(=O)cc3n2Cc2ccccc2)cc1` [AVG-199], 10000 to 20000 nM; that for `Cc1c2c(=O)[nH]n(Cc3ccccc3)c2cc(=O)n1Cc1ccccn1` [AVG-200], over 20000 nM. The same measure, in the same setting: the result for `Cc1c2c(=O)n(-c3nc4ccccc4s3)n(Cc3ccccc3)c2cc(=O)n1Cc1cccc(C(F)(F)F)n1` [AVG-201] reads 100 to 1000 nM; that for `COc1cccc(Cn2c(C)c3c(=O)n(-c4ccccn4)n(Cc4ccccc4)c3cc2=O)n1` [AVG-203], 10 to 100 nM. Same read-out and setting: the result for `CCOc1cccc(Cn2c(C)c3c(=O)n(-c4nc5ccccc5s4)n(Cc4ccccc4)c3cc2=O)n1` [AVG-204] reads 100 to 1000 nM; that for `Cc1c2c(=O)n(-c3nc4ccccc4s3)n(Cc3ccccc3)c2cc(=O)n1Cc1cccc(OC(C)C)n1` [AVG-205], 100 to 1000 nM.

As to `Cc1c2c(=O)n(-c3nc4ccccc4s3)n(Cc3ccccc3)c2cc(=O)n1Cc1cccc(OCCN(C)C)n1` [AVG-206], the EC50 was in the range of 1000 to 10000 nM. For the molecule `Cc1c2c(=O)n(-c3nc4ccccc4s3)n(Cc3ccccc3)c2cc(=O)n1Cc1cccc(OCCCN(C)C)n1` [AVG-207], the EC50 is 1000 to 10000 nM. As to `Cc1c2c(=O)n(-c3nc4ccccc4s3)n(Cc3ccccc3)c2cc(=O)n1Cc1cccc(OC2CCN(C)CC2)n1` [AVG-208], the concentration giving a half-maximal response (EC50) was in the range of 1000 to 10000 nM. Still for that read-out and setting: the result for `Cc1c2c(=O)n(-c3nc4ccccc4s3)n(Cc3ccccc3)c2cc(=O)n1CC1CCCC(=O)N1` (stereo not shown) [AVG-210] reads 10000 to 20000 nM. Same read-out and setting: the result for `Cc1c2c(=O)n(-c3nc4ccccc4s3)n(Cc3ccccc3)c2cc(=O)n1CC1CCC(=O)N1C` (stereo not shown) [AVG-212] reads 10000 to 20000 nM. The same measure, in the same setting: for `Cc1c2c(=O)n(-c3nc4ccccc4s3)n(Cc3ccccc3)c2cc(=O)n1CC1CCC(=O)N1` (stereo not shown) [AVG-213] the value was 1000 to 10000 nM; for `Cc1c2c(=O)n(-c3nc4ccccc4s3)n(Cc3ccccc3)c2cc(=O)n1Cc1cccc(F)n1` [AVG-214], 100 to 1000 nM.

The values are drawn from US10906899B2, “Bicyclic fused pyrazole derivatives for the treatment of RSV” (GEORGIA STATE UNIVERSITY RESEARCH FOUNDATION, INC., priority 2016, dated 2021).
